The source of these data is US9216157B2, “Chewing gum in the form of multi-layer tablets” (Jagotec AG, priority 2003, dated 2015).

Structures are written as SMILES.

Data set [1] can be described thus: Dissolution test according to the American Pharmacopoeia (paddle, 100 rpm, 1000 mL water, 37°). The data set is classed as physicochemical. The procedure:
The tablets were then subjected to the dissolution test according to the American Pharmacopoeia method, using 1000 mL of water at 37° as dissolving fluid and a paddle at 100 rpm. The test was performed by the spectrophotometry method, operating at 280 nm.

The nature of data set [2]: Evaluation of release of active component in vivo (chewing by volunteers, residue analysed). The note with it: for Caffeine released in vivo (average): average of 3 volunteers. The arrangement: species or system human. The procedure:
To establish the release of active component from the chewing gum, the tablets were tested by a panel of 3 volunteers. For each test, the volunteer was asked to chew one piece of gum for a set time. After that time the gum was ground, and the active component content analysed. The in vivo tests were conducted with the following chewing times: 5, 10, 15, 20, 30 and 40 minutes. The gum residue was weighed, frozen and finely ground. An exactly weighed amount of this powder was then subjected to the dissolution test according to the American Pharmacopoeia, using 1000 mL of water at 37° as dissolving fluid, and a paddle at 100 rpm. The test was performed by the spectrophotometry method, operating at 273 nm. The amount of active component released in vivo was determined by subtracting the amount of caffeine in the residue from the amount present in the pharmaceutical form.

Setting [3] is: Example 5 four-layer tablets (50 mg levodopa, 12.5 mg carbidopa), time 0 min.
[4] abbreviates: Example 5 four-layer tablets, time 5 min.
Where [5] appears, read: Example 5 four-layer tablets, time 15 min.
Setting [6] is: Example 5 four-layer tablets, time 20 min.
Where [7] appears, read: Example 5 four-layer tablets, time 25 min.
Setting [8] is: Example 5 four-layer tablets, time 30 min.
Setting [9] is: Example 5 four-layer tablets, time 35 min.
Where [10] appears, read: Example 5 four-layer tablets, time 40 min.
The mark [11] stands for this setting: Example 3 tablet, chewing time 5 minutes.
Where [12] appears, read: Example 3 tablet, chewing time 10 minutes.
The mark [13] stands for this setting: Example 3 tablet, chewing time 15 minutes.
Where [14] appears, read: Example 3 tablet, chewing time 20 minutes.
Setting [15] is: Example 3 tablet, chewing time 30 minutes.
Where [16] appears, read: Example 3 tablet, chewing time 40 minutes.

For the compound `C[C@@](Cc1ccc(O)c(O)c1)(NN)C(=O)O` [carbidopa, Carbidopa], the “percentage released by the tablets” value in data set [1] (setting [3]) is recorded as 0.00%; in data set [1] (setting [4]), 78.23%; in data set [1] (setting [5]), 92.63%; in data set [1] (setting [6]), 94.97%; in data set [1] (setting [7]) it was 96.55%; in data set [1] (setting [8]), 98.18%. Besides, the entries for the “percentage released by the tablets” value in data set [1] (setting [9]) and in data set [1] (setting [10]) were 98.77% and 100.00%, respectively.

Regarding `Cn1c(=O)c2c(ncn2C)n(C)c1=O` [Caffeine], the “Caffeine released in vivo, Volunteer 2” value in data set [2] (setting [11]) is listed as 77.02%; in data set [2] (setting [12]), 83.66%; in data set [2] (setting [13]), 90.97%; in data set [2] (setting [14]), 91.58%; in data set [2] (setting [15]), 92.25%; in data set [2] (setting [16]) it was 93.34%. The “Caffeine released in vivo, Volunteer 3” value in data set [2] (setting [11]) is 75.07%; in data set [2] (setting [12]), 84.94%; in data set [2] (setting [13]), 91.07%; in data set [2] (setting [14]), 89.61%; in data set [2] (setting [15]), 92.49%; in data set [2] (setting [16]) it was 92.34%. The “Caffeine released in vivo (average)” value in data set [2] (setting [11]) stood at 74.54%; in data set [2] (setting [12]), 84.88%; in data set [2] (setting [13]), 90.74%; in data set [2] (setting [14]) it was 90.21%; in data set [2] (setting [15]), 92.89%; in data set [2] (setting [16]), 92.82%. Besides, the “Caffeine released in vivo, Volunteer 1” value worked out at 86.03% in data set [2] (setting [12]); 90.18% in data set [2] (setting [13]); 89.45% in data set [2] (setting [14]); 93.92% in data set [2] (setting [15]); 92.79% in data set [2] (setting [16]); 71.52% in data set [2] (Example 3 three-layer chewing gum tablet, 10 mg caffeine, chewing time 5 minutes).

For the compound `N[C@@H](Cc1ccc(O)c(O)c1)C(=O)O` [levodopa, Levodopa], the “percentage released by the tablets” value is recorded as 0.00% in data set [1] (setting [3]); 63.52% in data set [1] (setting [4]); 90.00% in data set [1] (setting [5]); 92.47% in data set [1] (setting [6]); 94.04% in data set [1] (setting [7]); 94.90% in data set [1] (setting [8]). For the same compound, the “percentage released by the tablets” value in data set [1] (setting [9]) stood at 95.66%; in data set [1] (setting [10]), 96.28%.
